In patent US20050107289A1, “Anti-microbial peptides and compositions” (priority 2001, published 2005):
Non-standard residues stand in square brackets, D forms with d. Residues, ends and D or L forms follow the SMILES beside them.

Assays:
Toxicity studies in mice = format: in vivo; design: LD50(IP) / LD50(IV): unit not given here; settings: for LD50(IP) / LD50(IV): Table 12, male Balb-C mice; for LD50 at 14 days: male, Balb-C, mouse, in vivo, ip, Table 13
Method: Peptides were tested for toxicity in vivo using procedures similar to those described previously. […] Mice (male Balb-C) in groups of 4-8 were given via IV, IP or SQ single bolucdoses of peptides and monitored for 14 days. Toxicity of sublethal doses was assessed based on the behavior and appearance of the mice after peptide administration compared to control mice receiving only vehicle. Signs of acute toxicity included lack of activity, red feet and tail, faster breathing. Death was defined as the end point for lethal doses of peptides.
Toxicology Studies: Initial toxicology studies in mice were conducted to evaluate various routes of drug administration, maximum tolerable dose, and blood and tissue toxicity. Two mice in each dose study were injected with a bolus intravenous (IV), intraperitoneal (IP), or subcutaneous (SQ) doses of peptide SEQ ID NO:8, 18, and 26. For each study, two control animals received vehicle only and no peptide. […] Signs of acute toxicity included any one of the following: lack of activity, red feet and tail, or faster breathing. […] A regimen of […] of peptide SEQ ID NO:18 for three consecutive days was administered to two mice IP and two mice SQ.

in vivo = settings: for bioavailability / Vd / clearance / half-life: Balb/C, mouse, plasma; for bioavailability: intraperitoneal, 100 mg/kg; for Vd / clearance / half-life: iv; for Kel elimination rate constant: Mouse, IV injection
Method: IV injection: Solution of peptide in 9% sucrose (1 mg/mL) was injected IV into the tail vein of Balb/C mice at a dose of 3.6 mg/kg. Then the blood was collected immediately from one group of mice (3 mice per group) by bleeding the tail, separately from each mouse (50-100 uL per mouse). Further collections of blood were done from other groups of mice at times 20, 40, 70, 90, 120, 180, and 260 min after injection. Plasma from each blood sample was separated immediately after collection by spinning down red blood cells over a period of 5 min at 4000 rev./min. The plasma was then diluted with an equal volume of saline and refrigerated until analysis.
IP injection: Solutions of peptide in 9% sucrose (8.1 mg/mL) were injected EP into Balb/C mice at a dose of 100 mg/kg. Blood was collected immediately from one group of mice (3 mice per group) by bleeding the tail, separately from each mouse (50-100 uL per mouse). Further collections of blood were done from other groups of mice at times 0.5, 1, 2, 4, 6, 10, 15 h after injection. Plasma from each blood sample was separated immediately after collection by spinning down red blood cells over a period of 5 min at 4000 rev./min. Plasma was then diluted with equal volume of saline and refrigerated until analysis.
Detection of cyclo[RRKWLWW]-HCl in plasma by HPLC: Diluted with saline plasma (50-100 uL) was added to an eluent A (0.1% HCl in 99% H2O/1% ACN (v/v)) (150-300 uL), vortexed, and partial precipitation was removed by centrifugation. The clear solution was injected into an HPLC and the peptide was detected at 280 nm, in the 8-10 min interval, using a gradient of eluent A (0.1% HCl in 99% H2O/1% ACN (v/v)) and eluent B (0.07% HCl in 10% H2O/90% ACN (v/v)) using a flow rate of 1.5 ml/min. The following gradient was used: 30 to 30% B (5 min), followed by 30 to 37% B (5 min), followed by 37 to 40% B (12.5 min).
IV injection: Solution of peptide in 9% sucrose (2 mg/mL) was injected IV into the tail vein of Balb/C mice at a dose of 5 mg/kg. Blood was then collected immediately from one group of mice (3 mice per group) by bleeding the tail, separately from each mouse (50-100 uL per mouse). Further collections of blood were done from other groups of mice at times 30, 60, 120, 230, and 300 min after injection. Plasma from each blood sample was separated immediately after collection by spinning down red blood cells over a period of 5 min at 4000 rev./min. Plasma was then diluted with an equal volume of saline and refrigerated until analysis.
IP injection: Solution of peptide in 9% sucrose (9.8 mg/mL) was injected IP into Balb/C mice at a dose of 100 mg/kg. Blood was then collected immediately from one group of mice (3 mice per group) by bleeding the tail, separately from each mouse (50-100 uL per mouse). Further collections of blood were done from other groups of mice at times 0.5, 1, 2, 4, 6, 10 h after injection. Plasma from each blood sample was separated immediately after collection by spinning down red blood cells over a period of 5 min at 4000 rev./min. Plasma was then diluted with an equal volume of saline and refrigerated until analysis.
Detection of c(KSKWLWW) HC in plasma by HPLC: Samples were diluted with saline plasma (50-100 uL), added to an equal volume of eluent A (0.1% TFA in 96.5% H2O/0.9% ACN/2.4% MeOH (v/v)), vortexed, and partial precipitation was removed by centrifugation. The clear solution was injected into HPLC and the peptide was detected at 280 nm, in the 18-20 min interval, using a gradient of eluent A (0.1% TFA in 96.5% H2O/0.9% ACN/2.4% MeOH (v/v)) and eluent B (0.05% TFA in 8% H2O/72% ACN/20% MeOH (v/v)) using a flow rate of 1.5 ml/min. The following gradient was used: 0 to 0% B (5 min), followed by 0 to 100% B (25 min).

| Compound | LD50(IP) (Toxicity studies in mice) | LD50(IV) (Toxicity studies in mice) | LD50 at 14 days (Toxicity studies in mice) | signs of toxicity (Toxicity studies in mice; mice, IP, maximum tested dose 12 mg/kg) | signs of toxicity (Toxicity studies in mice; mice, bolus IV 12 mg/kg) | bioavailability (in vivo) | Vd (in vivo) | clearance (in vivo) | half-life (in vivo) | Kel elimination rate constant (in vivo) | physical, social and feeding activities (Toxicity studies in mice; mice, 17.5 mg per day, three consecutive days, IP or SQ, over four days) | sites of IP and SQ injections (Toxicity studies in mice; mice, 17.5 mg per day, three days) | hematology, necropsy and microscopic examination (Toxicity studies in mice; mice, 17.5 mg per day, three days, fourth day) | signs of toxicity (Toxicity studies in mice; mice, up to 17.5 mg/kg IP and SQ) |
| --- | --- | --- | --- | --- | --- | --- | --- | --- | --- | --- | --- | --- | --- | --- |
| CC(C)C[C@H]1NC(=O)[C@H](Cc2c[nH]c3ccccc23)NC(=O)[C@@H](CCCNC(=N)N)NC(=O)[C@H](CCC(N)=O)NC(=O)[C@@H](CCCCN)NC(=O)[C@H](Cc2c[nH]c3ccccc23)NC(=O)[C@@H](CC(C)C)NC(=O)[C@H](Cc2c[nH]c3ccccc23)NC1=O [SEQ ID NO:8, cyclo-(D-Lys-Gln-D-Arg-Trp-D-Leu-Trp-D-Leu-Trp)] (cyclo([dK]Q[dR]W[dL]W[dL]W)) | 55 | >12 | 55 mg/kg | no signs of toxicity were observed | signs of temporary (<10 min in duration) discomfort |  |  |  |  |  |  |  |  |  |
| CC(C)C[C@H]1NC(=O)[C@H](Cc2c[nH]c3ccccc23)NC(=O)[C@@H](CCCCN)NC(=O)[C@H](CO)NC(=O)[C@@H](CCCCN)NC(=O)[C@H](Cc2c[nH]c3ccccc23)NC(=O)[C@@H](CC(C)C)NC(=O)[C@H](Cc2c[nH]c3ccccc23)NC1=O [SEQ ID NO:12, D-Lys-Ser-D-Lys-Trp-D-Leu-Trp-D-Leu-Trp] (cyclo([dK]S[dK]W[dL]W[dL]W)) | >400 | 70 | > 400 mg/kg |  |  | 32% | 0.67 L/kg | 0.3 mL/min | 0.83 h | 0.84 h⁻¹ |  |  |  |  |
| CC(C)C[C@H]1NC(=O)[C@H](Cc2c[nH]c3ccccc23)NC(=O)[C@@H](CCCCN)NC(=O)[C@H](CCCNC(=N)N)NC(=O)[C@@H](CCCNC(=N)N)NC(=O)[C@H](Cc2c[nH]c3ccccc23)NC(=O)[C@@H](CC(C)C)NC(=O)[C@H](Cc2c[nH]c3ccccc23)NC1=O [SEQ ID NO:18, cyclo-(D-Arg-Arg-D-Lys-Trp-D-Leu-Trp-D-Leu-Trp)] (cyclo([dR]R[dK]W[dL]W[dL]W)) | 60 | 16 | 60 mg/kg |  |  | 9% | 0.58 L/kg | 0.16 mL/min | 1.2 h | 0.6 h⁻¹ | no apparent changes in the physical, social, and feeding activities | moderate subacute inflammation | normal blood and morphological profiles except for the sites of IP and SQ injections | without any apparent signs of toxicity |
